# Source: article PMC11274883, “Anticancer Effect of Pt^[sequence], Pt^II5MESS, Pt^II56MESS and Their Platinum(IV)-Dihydroxy Derivatives against Triple-Negative Breast Cancer and Cisplatin-Resistant Colorectal Cancer” (Cancers, 2024)
# Key:
# Assay type in all cases: cell-based
# HT29 cells [1] = assay: TMRE mitochondrial membrane potential assay; conditions: complexes at IC50, FCCP 20 µM
# Protocol: (§1) Cells were then treated with an IC50 drug concentration for each complex. At 24, 48 or 72 h, DMEM was removed, and cells were washed with PBS. Then, cells were incubated with 1 µM tetramethylrhodamine, ethyl ester (TMRE) stain for 30 min. TMRE was then removed, and cells were washed twice with PBS (0.2% BSA), after which phenol red-free media was added. […] The cells were then stained with TMRE, as described above, and the resulting solution was scanned for fluorescence. Three independent experiments in triplicates were implemented.
# MDA−MB−231 cells [2] = assay: TMRE mitochondrial membrane potential assay; conditions: complexes at IC50, FCCP 20 µM
# Protocol: as §1
# HT29 cells [3] = assay: Western blot protein expression; conditions: HT29, IC50, 72 h
# Protocol: (§2) Protein extraction was then performed on ice. Media were collected in Eppendorf tubes, and centrifuged at 500× g for 5 min at 4 °C. Meanwhile, 200 µL of lysis RIPA buffer, made up of 150 mM NaCl, 50 mM Tris-HCl, pH 8.0, 0.1% Triton X-100, 0.5% sodium deoxycholate, 0.1% SDS and 1 mM sodium orthovanadate, was added to each well, the cells were scrapped into the buffer, and added to the media-derived pellets. The tubes were placed on the shaker for 10 min at 4 °C. Then, cell extracts were centrifuged at 12,000× g for 15 min at 4 °C, and the supernatants (containing the proteins) were collected. The Bio-Rad-DC protein assay (Bio-Rad, Hercules, CA, USA) was used to assess protein content. Laemmli protein sample buffer (4×) with β-mercaptoethanol (9%) was used to prepare a final protein concentration of 20 µg. The samples were then heated at 100 °C for 5 min. A final volume of 30 µL of each sample was added per well and subjected to SDS-PAGE using Bolt 4–12% Bis-Tris gel (Thermo Fisher, Eugene, OR, USA) at 80 V for 30 min and then 120 V for 60 min with PageRuler™ Prestained Protein or SeeBlue Prestained Protein Ladder (Thermo Fisher, Eugene, OR, USA). Proteins were subsequently transferred to a 0.2 µm PVDF membrane (Amersham, Cytiya) using a semi-dry blot transfer. The membrane was then blocked in 5% BSA in TBST, for 1 h and probed overnight at 4 °C with primary antibodies against several cell proliferation, apoptotic, anti-apoptotic, microtubule and autophagic protein markers listed in Table S7 as per the manufacturer’s protocol. The primary antibody was then removed, washed three times for 10 min with TBST and then membranes were treated with either mouse or rabbit HRP-coupled secondary antibodies (1/3000) for 1 h and 30 min. Protein band detection was then performed using the chemiluminescence ECL kit (Thermo Fisher, Eugene, OR, USA). Blot images were obtained using the Odyssey® FC imaging system (LI-COR Biosciences, Lincoln, NE, USA) and band intensities were quantified relatively to glyceraldehyde-3-phosphate dehydrogenase (GAPDH) and then normalised each replicate gel to its corresponding no treatment control using the ImageJ v1.53t software (National Institutes of Health, Bethesda, MD, USA). Each marker results from the same experiment or parallel experiment where the gels were processed in parallel. Three independent experiments per marker were conducted.
# MDA−MB−231 cells [4] = assay: Western blot protein expression; conditions: MDA−MB−231, IC50, 72 h
# Protocol: as §2
# [5] = representative blot Figure S30G
# [6] = representative blot Figure S30H
structure (smiles),measurement,setting,value
"Cc1c(C)c2cccnc2c2ncccc12.N[C@H]1CCCC[C@@H]1N.O=[N+]([O-])[O-].O=[N+]([O-])[O-].[Pt+2] [Pt^II56MESS, [Pt(5,6-dimethyl-1,10-phenanthroline)(1S,2S-diaminocyclohexane)](NO3)2]",MtMp (mitochondrial membrane potential),"HT29 cells [1]; HT29, 24 h",159.93 RFU
same,MtMp (mitochondrial membrane potential),"HT29 cells [1]; HT29, 48 h",151.44 RFU
same,MtMp (mitochondrial membrane potential),"HT29 cells [1]; HT29, 72 h",102.76 RFU
same,MtMp (mitochondrial membrane potential),"MDA−MB−231 cells [2]; MDA−MB−231, 24 h",155.45 RFU
same,MtMp (mitochondrial membrane potential),"MDA−MB−231 cells [2]; MDA−MB−231, 48 h",131.53 RFU
same,MtMp (mitochondrial membrane potential),"MDA−MB−231 cells [2]; MDA−MB−231, 72 h",86.51 RFU
same,β-actin/GAPDH normalized to control (1),HT29 cells [3]; representative blot Figure S28A,0.4943
same,β-tubulin/GAPDH normalized to control (1),HT29 cells [3]; representative blot Figure S28B,0.2182
same,α-tubulin/GAPDH normalized to control (1),HT29 cells [3]; representative blot Figure S28C,0.04906
same,p-AKT/AKT/GAPDH normalized to control (1),HT29 cells [3]; representative blot Figure S29A,0.5359
same,p-ERK/ERK/GAPDH normalized to control (1),HT29 cells [3]; representative blot Figure S29B,0.8325
same,p53/GAPDH normalized to control (1),HT29 cells [3]; representative blot Figure S29C,1.014
same,p21/GAPDH normalized to control (1),HT29 cells [3]; representative blot Figure S29D,1.281
same,Bax/GAPDH normalized to control (1),HT29 cells [3]; representative blot Figure S30A,2.693
same,Bcl2/GAPDH normalized to control (1),HT29 cells [3]; representative blot Figure S30B,0.04576
same,Cyt C/GAPDH normalized to control (1),HT29 cells [3]; representative blot Figure S30C,6.706
same,Procaspase 8/GAPDH normalized to control (1),HT29 cells [3]; representative blot Figure S30D,0.2505
same,Cleaved BID/GAPDH normalized to control (1),HT29 cells [3]; representative blot Figure S30E,2.821
same,Procaspase 9/GAPDH normalized to control (1),HT29 cells [3]; representative blot Figure S30F,0.2717
same,Cleaved caspase 3/GAPDH normalized to control (1),HT29 cells [3]; [5],5.099
same,Procaspase 3/GAPDH normalized to control (1),HT29 cells [3]; [5],0.8936
same,Cleaved PARP-1/GAPDH normalized to control (1),HT29 cells [3]; [6],7.064
same,PARP-1/GAPDH normalized to control (1),HT29 cells [3]; [6],0.317
same,Beclin1/GAPDH normalized to control (1),HT29 cells [3]; representative blot Figure S31A,5.632
same,ATG5/GAPDH normalized to control (1),HT29 cells [3]; representative blot Figure S31B,0.6185
same,ATG16L1/GAPDH normalized to control (1),HT29 cells [3]; representative blot Figure S31C,1.309
same,ATG9A/GAPDH normalized to control (1),HT29 cells [3]; representative blot Figure S31D,1.516
same,ATG4B/GAPDH normalized to control (1),HT29 cells [3]; representative blot Figure S31E,0.7106
same,LC3B/GAPDH normalized to control (1),HT29 cells [3]; representative blot Figure S31F,1.044
same,β-actin/GAPDH normalized to control (1),MDA−MB−231 cells [4]; representative blot Figure S24A,0.5956
same,β-tubulin/GAPDH normalized to control (1),MDA−MB−231 cells [4]; representative blot Figure S24B,0.5978
same,α-tubulin/GAPDH normalized to control (1),MDA−MB−231 cells [4]; representative blot Figure S24C,0.7887
same,p-AKT/AKT/GAPDH normalized to control (1),MDA−MB−231 cells [4]; representative blot Figure S25A,0.5229
same,p-ERK/ERK/GAPDH normalized to control (1),MDA−MB−231 cells [4]; representative blot Figure S25B,0.06081
same,p53/GAPDH normalized to control (1),MDA−MB−231 cells [4]; representative blot Figure S25C,0.6187
same,p21/GAPDH normalized to control (1),MDA−MB−231 cells [4]; representative blot Figure S25D,2.6
same,Bax/GAPDH normalized to control (1),MDA−MB−231 cells [4]; representative blot Figure S26A,1.276
same,Bcl2/GAPDH normalized to control (1),MDA−MB−231 cells [4]; representative blot Figure S26B,0.6846
same,Cytochrome C/GAPDH normalized to control (1),MDA−MB−231 cells [4]; representative blot Figure S26C,3.109
same,Procaspase 8/GAPDH normalized to control (1),MDA−MB−231 cells [4]; representative blot Figure S26D,0.3584
same,Cleaved BID/GAPDH normalized to control (1),MDA−MB−231 cells [4]; representative blot Figure S26E,14.74
same,Procaspase 9/GAPDH normalized to control (1),MDA−MB−231 cells [4]; representative blot Figure S26F,0.4755
same,Procaspase 3/GAPDH normalized to control (1),MDA−MB−231 cells [4]; representative blot Figure S26G,0.4243
same,PARP-1/GAPDH normalized to control (1),MDA−MB−231 cells [4]; representative blot Figure S26H,0.634
same,Beclin1/GAPDH normalized to control (1),MDA−MB−231 cells [4]; representative blot Figure S27A,3.15
same,ATG5/GAPDH normalized to control (1),MDA−MB−231 cells [4]; representative blot Figure S27B,0.4012
same,ATG16L1/GAPDH normalized to control (1),MDA−MB−231 cells [4]; representative blot Figure S27C,0.5726
same,ATG9A/GAPDH normalized to control (1),MDA−MB−231 cells [4]; representative blot Figure S27D,0.2848
same,ATG4B/GAPDH normalized to control (1),MDA−MB−231 cells [4]; representative blot Figure S27E,2.107
same,LC3B/GAPDH normalized to control (1),MDA−MB−231 cells [4]; representative blot Figure S27F,0.8478
